Measured values as given in patent publication US20080176339A1, “NEUTRAL LABELING REACTANTS AND CONJUGATES DERIVED THEREOF” (WALLAC OY, priority 2006, published 2008).
Each block holds one compound with its values, some of them ahead of it.

Experiments:
antiserum = assay: Performance of thyroxine tracers in DELFIA based T4-assay compared to AutoDELFIA Neonatal T4 kit; settings: up to one week in instrument-like conditions
Procedure: The assay concentrations of the antiserum were optimized for each tracer individually, and the analytical sensitivities of the optimized standard curves were defined. The correlation between the methods were studied with a small sample panel. The on-board stability was tested up to one week in instrument-like conditions. Sensitivity to the interference of EDTA-containing samples was also studied.

[1] = in vivo; cited from earlier work
[2] = Stabilities of chelates in DELFIA Enhancement Solution and DELFIA Inducer (dissociation of europium followed by time-resolved fluorometer); assay type: physicochemical; settings: RT (25° C.)
Procedure: The chelates (ca 1 mg) were dissolved either in Inducer or Enhanchement Solution. The dissociation of the europium at 25° C. were followed using a time-resolved fluorometer. The results are shown below

- On board stability (antiserum): Better
Compound: NC(=O)CN(CCN(CC(=O)O)CC(Cc1ccc(NC(=S)NCCCCCC(=O)NC(Cc2cc(I)c(Oc3cc(I)c(O)c(I)c3)c(I)c2)C(=O)O)cc1)N(CC(N)=O)CC(=O)O)CC(=O)O (centres unmarked) [Compound 13]

- On board stability (antiserum): Better
Compound: O=C(O)CN(CCN(CC(=O)O)CC(Cc1ccc(NC(=S)NCCCCCC(=O)NC(Cc2cc(I)c(Oc3cc(I)c(O)c(I)c3)c(I)c2)C(=O)O)cc1)N(CC(=O)O)CC(=O)O)CC(=O)O (centres unmarked) [Compound T4-DTPA]

Compound: O=C([O-])CN(CCN(CC(=O)[O-])CC(=O)O)CCN(CC(=O)[O-])CC(=O)O.[Gd+3] [Gd-DTPA]
- Crossing of intact blood-brain barrier [1]: does not cross an intact blood-brain barrier

- Approximate time needed for complete dissociation, Enhancer ([2]; DELFIA Enhancement Solution): 30 min
- Approximate time needed for complete dissociation, Inducer ([2]; DELFIA Inducer): <5 min
Compound: Europium Chelate of 2-(4-aminobenzyl)-1,7-bis(aminocarbonylmethyl)-1,4,7-tris(carboxymethyl)-1,4,7-triazaheptane [Compound 10]
